Data published in the NIST ThermoML archive (doi:10.1016/j.fluid.2011.04.017).
Numbers after ± are expanded uncertainties.

Conditions: 101.33 kPa, Liquid, Vibrating tube method

| Compound | mass density (298.1 K) | mass density (293.15 K) | mass density (298.15 K) |
| --- | --- | --- | --- |
| CCCCn1cc[n+](C)c1.F[P-](F)(F)(F)(F)F [1-butyl-3-methylimidazolium hexafluorophosphate] | 1366.38 ± 1.7 kg/m3 |  |  |
| CCCCCCCCCn1cc[n+](C)c1.F[P-](F)(F)(F)(F)F [1-nonyl-3-methylimidazolium hexafluorophosphate] |  | 1198.32 ± 0.2 kg/m3 | 1194.34 ± 0.19 kg/m3 |
